{"source": "ChEMBL document CHEMBL5029170", "about": "“Discovery of novel triazole compounds as selective IL-1β releasement inhibitors” (Bioorg Med Chem Lett, 2021)", "data": [{"assay": "Antiinflammatory activity in mouse BMDM cells assessed as inhibition of TNF-alpha production relative to control; further: test concentration or dose not given here", "assay_type": "functional", "units": {"inhibition (INH)": "%"}, "values": [{"smiles": "CCC(=O)N(C(=O)CC)c1c(C(N)=O)nnn1Cc1cc(Cl)c(C(=O)c2ccc(Cl)cc2)c(Cl)c1", "inhibition (INH)": 11.95}, {"smiles": "CCC(CC)C(=O)Nc1c(C(N)=O)nnn1Cc1cc(Cl)c(C(=O)c2ccc(Cl)cc2)c(Cl)c1", "inhibition (INH)": 5.73}, {"smiles": "CC(=O)c1nnn(Cc2cc(Cl)c(C(=O)c3ccc(Cl)cc3)c(Cl)c2)c1N", "inhibition (INH)": 49.4}, {"smiles": "NC(=O)c1nnn(Cc2ccc3ccccc3c2)c1N", "inhibition (INH)": 2.5}, {"smiles": "CN(C)c1c(C(N)=O)nnn1Cc1cc(Cl)c(C(=O)c2ccc(Cl)cc2)c(Cl)c1", "inhibition (INH)": 45.89}, {"smiles": "Nc1c(C(=O)NCCOCCO)nnn1Cc1cc(Cl)c(C(=O)c2ccc(Cl)cc2)c(Cl)c1", "inhibition (INH)": 5.3}, {"smiles": "NC(=O)c1nnn(Cc2ccccc2)c1N", "inhibition (INH)": -12.61}, {"smiles": "NC(=O)c1nnn(Cc2cc(Cl)c(C(=O)c3ccc(Cl)cc3)c(Cl)c2)c1NC(=O)c1ccco1", "inhibition (INH)": 21.44}, {"smiles": "Nc1c(C(=O)NCCO)nnn1Cc1cc(Cl)c(C(=O)c2ccc(Cl)cc2)c(Cl)c1", "inhibition (INH)": 15.01}, {"smiles": "NC(=O)c1nnn(Cc2cc(Cl)c(C(=O)c3ccc(Cl)cc3)c(Cl)c2)c1NC(=O)C1CC1", "inhibition (INH)": 73.51}, {"smiles": "N#Cc1nnn(Cc2cc(Cl)c(C(=O)c3ccc(Cl)cc3)c(Cl)c2)c1N", "inhibition (INH)": 82.32}, {"smiles": "CC(C)C(=O)N(C(=O)C(C)C)c1c(C(N)=O)nnn1Cc1cc(Cl)c(C(=O)c2ccc(Cl)cc2)c(Cl)c1", "inhibition (INH)": 20.24}, {"smiles": "CC(C)(C)C(=O)Nc1c(C(N)=O)nnn1Cc1cc(Cl)c(C(=O)c2ccc(Cl)cc2)c(Cl)c1", "inhibition (INH)": 92.89}, {"smiles": "NC(=O)c1cn(Cc2cc(Cl)c(C(=O)c3ccc(Cl)cc3)c(Cl)c2)nn1", "inhibition (INH)": 30.18}, {"smiles": "Nc1c(C(=O)N2CCCCC2)nnn1Cc1cc(Cl)c(C(=O)c2ccc(Cl)cc2)c(Cl)c1", "inhibition (INH)": 52.43}, {"smiles": "CN1CCN(C(=O)c2nnn(Cc3cc(Cl)c(C(=O)c4ccc(Cl)cc4)c(Cl)c3)c2N)CC1", "inhibition (INH)": 97}, {"smiles": "NC(=O)c1nnn(Cc2cc(Cl)c(C(=O)c3ccc(Cl)cc3)c(Cl)c2)c1NC(=O)CCCBr", "inhibition (INH)": -2.72}, {"smiles": "CCC(CC)C(=O)N(C(=O)C(CC)CC)c1c(C(N)=O)nnn1Cc1cc(Cl)c(C(=O)c2ccc(Cl)cc2)c(Cl)c1", "inhibition (INH)": 12.68}, {"smiles": "NC(=O)c1nnn(Cc2cc(Cl)c(C(=O)c3ccc(Cl)cc3)c(Cl)c2)c1N(C(=O)C1CC1)C(=O)C1CC1", "inhibition (INH)": 48.7}]}, {"assay": "Selectivity index, ratio of IC50 for antiinflammatory activity in mouse BMDM cells assessed as inhibition of TNF-alpha production to IC50 for antiinflammatory activity in mouse BMDM cells assessed as inhibition of IL1-beta production", "assay_type": "functional", "values": [{"smiles": "CCC(CC)C(=O)Nc1c(C(N)=O)nnn1Cc1cc(Cl)c(C(=O)c2ccc(Cl)cc2)c(Cl)c1", "Ratio IC50": ">12.37"}]}, {"assay": "Selectivity index, ratio of antiinflammatory activity in mouse BMDM cells assessed as inhibition of TNF-alpha production to antiinflammatory activity in mouse BMDM cells assessed as inhibition of IL1-beta production; further: test concentration or dose not given here", "assay_type": "functional", "values": [{"smiles": "CCC(CC)C(=O)Nc1c(C(N)=O)nnn1Cc1cc(Cl)c(C(=O)c2ccc(Cl)cc2)c(Cl)c1", "Selectivity Index": 13.43}, {"smiles": "CC(=O)c1nnn(Cc2cc(Cl)c(C(=O)c3ccc(Cl)cc3)c(Cl)c2)c1N", "Selectivity Index": 0.8}, {"smiles": "CN(C)c1c(C(N)=O)nnn1Cc1cc(Cl)c(C(=O)c2ccc(Cl)cc2)c(Cl)c1", "Selectivity Index": 0.87}, {"smiles": "Nc1c(C(=O)NCCOCCO)nnn1Cc1cc(Cl)c(C(=O)c2ccc(Cl)cc2)c(Cl)c1", "Selectivity Index": 1.12}, {"smiles": "NC(=O)c1nnn(Cc2cc(Cl)c(C(=O)c3ccc(Cl)cc3)c(Cl)c2)c1NC(=O)c1ccco1", "Selectivity Index": 2.65}, {"smiles": "Nc1c(C(=O)NCCO)nnn1Cc1cc(Cl)c(C(=O)c2ccc(Cl)cc2)c(Cl)c1", "Selectivity Index": 4.85}, {"smiles": "NC(=O)c1nnn(Cc2cc(Cl)c(C(=O)c3ccc(Cl)cc3)c(Cl)c2)c1NC(=O)C1CC1", "Selectivity Index": 0.78}, {"smiles": "N#Cc1nnn(Cc2cc(Cl)c(C(=O)c3ccc(Cl)cc3)c(Cl)c2)c1N", "Selectivity Index": 0.78}, {"smiles": "CC(C)(C)C(=O)Nc1c(C(N)=O)nnn1Cc1cc(Cl)c(C(=O)c2ccc(Cl)cc2)c(Cl)c1", "Selectivity Index": 0.74}, {"smiles": "NC(=O)c1cn(Cc2cc(Cl)c(C(=O)c3ccc(Cl)cc3)c(Cl)c2)nn1", "Selectivity Index": 1.68}, {"smiles": "Nc1c(C(=O)N2CCCCC2)nnn1Cc1cc(Cl)c(C(=O)c2ccc(Cl)cc2)c(Cl)c1", "Selectivity Index": 0.51}, {"smiles": "CN1CCN(C(=O)c2nnn(Cc3cc(Cl)c(C(=O)c4ccc(Cl)cc4)c(Cl)c3)c2N)CC1", "Selectivity Index": 0.38}, {"smiles": "NC(=O)c1nnn(Cc2cc(Cl)c(C(=O)c3ccc(Cl)cc3)c(Cl)c2)c1NC(=O)CCCBr", "Selectivity Index": 19.51}]}, {"assay": "Antiinflammatory activity in mouse BMDM cells assessed as inhibition of IL1-beta production relative to control; further: test concentration or dose not given here", "assay_type": "functional", "units": {"inhibition (INH)": "%"}, "values": [{"smiles": "CCC(=O)N(C(=O)CC)c1c(C(N)=O)nnn1Cc1cc(Cl)c(C(=O)c2ccc(Cl)cc2)c(Cl)c1", "inhibition (INH)": -23.37}, {"smiles": "CCC(CC)C(=O)Nc1c(C(N)=O)nnn1Cc1cc(Cl)c(C(=O)c2ccc(Cl)cc2)c(Cl)c1", "inhibition (INH)": 77.01}, {"smiles": "CC(=O)c1nnn(Cc2cc(Cl)c(C(=O)c3ccc(Cl)cc3)c(Cl)c2)c1N", "inhibition (INH)": 39.49}, {"smiles": "NC(=O)c1nnn(Cc2ccc3ccccc3c2)c1N", "inhibition (INH)": -26.65}, {"smiles": "CN(C)c1c(C(N)=O)nnn1Cc1cc(Cl)c(C(=O)c2ccc(Cl)cc2)c(Cl)c1", "inhibition (INH)": 39.86}, {"smiles": "Nc1c(C(=O)NCCOCCO)nnn1Cc1cc(Cl)c(C(=O)c2ccc(Cl)cc2)c(Cl)c1", "inhibition (INH)": 62}, {"smiles": "NC(=O)c1nnn(Cc2ccccc2)c1N", "inhibition (INH)": -6.29}, {"smiles": "NC(=O)c1nnn(Cc2cc(Cl)c(C(=O)c3ccc(Cl)cc3)c(Cl)c2)c1NC(=O)c1ccco1", "inhibition (INH)": 56.91}, {"smiles": "Nc1c(C(=O)NCCO)nnn1Cc1cc(Cl)c(C(=O)c2ccc(Cl)cc2)c(Cl)c1", "inhibition (INH)": 72.28}, {"smiles": "NC(=O)c1nnn(Cc2cc(Cl)c(C(=O)c3ccc(Cl)cc3)c(Cl)c2)c1NC(=O)C1CC1", "inhibition (INH)": 57.13}, {"smiles": "N#Cc1nnn(Cc2cc(Cl)c(C(=O)c3ccc(Cl)cc3)c(Cl)c2)c1N", "inhibition (INH)": 64.01}, {"smiles": "CC(C)C(=O)N(C(=O)C(C)C)c1c(C(N)=O)nnn1Cc1cc(Cl)c(C(=O)c2ccc(Cl)cc2)c(Cl)c1", "inhibition (INH)": -22.3}, {"smiles": "CC(C)(C)C(=O)Nc1c(C(N)=O)nnn1Cc1cc(Cl)c(C(=O)c2ccc(Cl)cc2)c(Cl)c1", "inhibition (INH)": 68.75}, {"smiles": "NC(=O)c1cn(Cc2cc(Cl)c(C(=O)c3ccc(Cl)cc3)c(Cl)c2)nn1", "inhibition (INH)": 50.67}, {"smiles": "Nc1c(C(=O)N2CCCCC2)nnn1Cc1cc(Cl)c(C(=O)c2ccc(Cl)cc2)c(Cl)c1", "inhibition (INH)": 27.12}, {"smiles": "CN1CCN(C(=O)c2nnn(Cc3cc(Cl)c(C(=O)c4ccc(Cl)cc4)c(Cl)c3)c2N)CC1", "inhibition (INH)": 36.62}, {"smiles": "NC(=O)c1nnn(Cc2cc(Cl)c(C(=O)c3ccc(Cl)cc3)c(Cl)c2)c1NC(=O)CCCBr", "inhibition (INH)": 53.09}, {"smiles": "CCC(CC)C(=O)N(C(=O)C(CC)CC)c1c(C(N)=O)nnn1Cc1cc(Cl)c(C(=O)c2ccc(Cl)cc2)c(Cl)c1", "inhibition (INH)": -22.74}, {"smiles": "NC(=O)c1nnn(Cc2cc(Cl)c(C(=O)c3ccc(Cl)cc3)c(Cl)c2)c1N(C(=O)C1CC1)C(=O)C1CC1", "inhibition (INH)": -36.41}]}, {"assay": "Antiinflammatory activity in mouse BMDM cells assessed as inhibition of TNF-alpha production", "assay_type": "functional, cell-based", "units": {"IC50": "µM"}, "values": [{"smiles": "CCC(CC)C(=O)Nc1c(C(N)=O)nnn1Cc1cc(Cl)c(C(=O)c2ccc(Cl)cc2)c(Cl)c1", "IC50": "> 100"}]}, {"assay": "Antiinflammatory activity in mouse BMDM cells assessed as inhibition of IL1-beta production", "assay_type": "functional, cell-based", "units": {"IC50": "µM"}, "values": [{"smiles": "CCC(CC)C(=O)Nc1c(C(N)=O)nnn1Cc1cc(Cl)c(C(=O)c2ccc(Cl)cc2)c(Cl)c1", "IC50": 8.08}]}]}
